According to patent US6653322B1, “Therapeutic combinations of RAR antagonists and RXR agonists and use thereof” (Bristol-Myers Squibb Company, priority 1996, dated 2003):
“Also recorded” adds a separate entry of the source.

Key:
RARβ2 and RARγ mRNA = assay: RARβ/RARγ expression by reverse transcriptase PCR in NB4 cells; type: cell-based, human; details: for Expression of RARβ2 (and RARγ) by RT-PCR: retinoid alone
Description: Total RNA was isolated and reverse transcribed in a buffer solution comprising 10 mM Tris-HCl (pH 8.3), 50 mM KCl, 2 mM MgCl2 and 1 mM of all four deoxynucleoside triphosphates, using 25 units of AMV reverse transcriptase in the presence of 50 units of RNAsin for 60 minutes at 42° C. For reverse transcription, 25 picomoles per reaction of the common antisense primer 5′-[…]-3′ (SEQ ID NO:6) for either RARα, β or γ was used. For each PCR reaction the common antisense primer, one-fourth of the reverse transcribed product and the following specific sense primers were used: […]
The amplification was carried out in a final volume of 0.1 ml, using Taq DNA polymerase (Perkin Elmer Cetus) according the manufacturer's instructions. Eighteen PCR cycles (30 seconds at 94° C., 30 seconds at 65° C. and 30 seconds at 72° C.) were performed, and a 10 microliter aliquot of each reaction was analyzed by electrophoresis on a 6% native polyacrylamide gel, which was then stained with ethidium bromide and examined by ultraviolet illumination.

NB4 cells [1] = assay: NB4 cell differentiation (TPA-induced nitroblue tetrazolium reduction); type: cell-based, human
Description: NB4 cells were obtained from ATCC and were grown in RPMI-1640 (plus 2 mM L-glutamine) containing 100 […] penicillin and streptomycin and 8% fetal bovine serum (FBS). Cells were treated for four days with retinoid(s) or ethanol vehicle, then washed and resuspended at a density of 5×10^5 cells/ml. 50 microliter aliquots of this suspension were spread over poly-L-lysine coated slides (Sigma, St. Louis, Mo.). After washing with PBS (137 mM NaCl, 2.7 mM KCl, 4.3 mM Na2HPO4, 1.4 mM KH2PO4), the cells were fixed for 10 minutes in 2% formalin (37% formaldehyde in 15% methanol in water) at room temperature.
Following fixation, cells were washed three times in PBS and were scored by TPA (12-O-tetradecanoyl-phorbol-13-acetate, 200 ng/ml)-induced nitroblue tetrazolium reduction (Sigma Fast BCIP/NBT) for 30 minutes at 37° C. Samples were examined for cellular and nuclear morphology with an optical microscope (Diavert Leitz); the percentage of differentiated cells was determined by counting at least 300 cells for each treatment.

AP1 activity = details: via all three RARs; Chen et al. 1995; cited from earlier work
NB4 cells [2] = assay: NB4 cell apoptosis (flow cytometry, DNA fragmentation); type: cell-based, human; details: for Induction of NB4 cell apoptosis: retinoid alone
Description: The cell cycle distribution and presence of “sub-2N” cells and particles in control and retinoid-treated NB4 cells were determined by cell cycle flow cytometry based on DNA content, using an EPICS Profile II cell sorter (Coulter Electronics, Inc., Hialeah, Fla.) equipped with a 15 watt argon laser tuned to an excitation wavelength of 488 nm and filter sets providing an emission wavelength of 575 nm. Cultures of untreated or retinoid-treated cells were centrifuged (250×g) and fixed in 70% ethanol and stored at −20° C. Following two washes in PBS, the cells and subcellular particles were incubated in 1 mg/ml RNase A (59 Kunitz units/mg, Sigma Chemical Co., St. Louis, Mo.) for 30 minutes at 37° C., centrifuged and resuspended in PBS at a concentration of approximately 10^6 cells per ml. Ethidium bromide was added to a final concentration of 50 micrograms/ml immediately prior to sample analysis.
The induction of apoptosis by retinoids was also determined by the appearance of a “ladder” of fragmented DNA as previously described (Nagy, L., et al., Mol. Cell. Biol. 15:3540-3551 (1995)). Cells were refed with fresh media and retinoids every 2 days, and the cell density was maintained well below saturation in order to prevent cell death due to nutrient and/or mitogen depletion. Five micrograms per lane of DNA was electrophoresed in a 1.5% agarose gel, followed by staining with ethidium bromide, and DNA bands were visualized and photographed via ultraviolet illumination of ethidium bromide fluorescence.

PML-RARα = target: T1, PML-RARα (Homo sapiens, UniProt P10276+P29590); assay: Anti-PML immunofluorescence: association of PML/PML-RARα with nuclear bodies in NB4 cells; type: cell-based; details: with SR11237
T1 construct: induced the association of endogenous PMUPML-RARα with nuclear bodies; endogenous in cells; host or cells: NB4 human acute promyelocytic leukemia cells
T1 sequence (P10276 61-462 limits assumed): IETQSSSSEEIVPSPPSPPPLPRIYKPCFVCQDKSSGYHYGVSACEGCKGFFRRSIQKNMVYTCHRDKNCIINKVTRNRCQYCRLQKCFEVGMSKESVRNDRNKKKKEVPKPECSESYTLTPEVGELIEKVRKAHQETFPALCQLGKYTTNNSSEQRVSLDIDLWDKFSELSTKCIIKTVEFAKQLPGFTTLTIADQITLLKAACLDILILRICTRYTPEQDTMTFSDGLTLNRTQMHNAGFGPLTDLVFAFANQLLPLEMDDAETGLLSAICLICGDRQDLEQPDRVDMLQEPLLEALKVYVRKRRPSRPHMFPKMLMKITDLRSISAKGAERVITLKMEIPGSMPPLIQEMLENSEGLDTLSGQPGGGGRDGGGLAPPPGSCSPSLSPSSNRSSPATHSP
Description: Following fixation, cells were permeabilized with 0.1% Triton X-100 in PBS (buffer A). After washing in PBS, the cells were blocked in 0.5 mg/ml normal goat IgG (Jackson Laboratories, Bar Harbor, Me.) in PBS for 30 minutes at room temperature, and thereafter incubated overnight at 4° C. with a polyclonal anti-PML antibody (the kind gift of Dr. Anne Dejean), diluted in buffer A containing 0.5 mg/ml normal goat IgG (buffer B) at 4° C. After three washes in buffer A, the cells were incubated with donkey anti-rabbit IgG (H+L) conjugated with cyanine 3 (Jackson Laboratories, Bar Harbor, Me.) in buffer B for 1 hour at room temperature. Following washes in PBS the mounted samples were examined with a confocal laser microscope (TCS, Leica) equipped with cyanine optics for PML localization.

GAL-RARβ = target: T2, GAL-RARβ (Homo sapiens, UniProt P10826); assay: HeLa reporter cells, agonistic/antagonistic activity of RAR-specific ligands; type: cell-based; details: FIG. 1
T2 construct: expressed in transfected cells; host or cells: HeLa
T2 sequence (P10826 183-417 limits assumed): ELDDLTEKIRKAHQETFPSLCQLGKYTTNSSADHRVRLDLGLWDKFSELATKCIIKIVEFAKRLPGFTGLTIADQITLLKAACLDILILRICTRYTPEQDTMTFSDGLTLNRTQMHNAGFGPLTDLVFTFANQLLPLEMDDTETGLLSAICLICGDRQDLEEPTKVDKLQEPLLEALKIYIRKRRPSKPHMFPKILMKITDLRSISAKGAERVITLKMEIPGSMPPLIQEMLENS
Description: (§1) HeLa reporter cell lines containing a retinoid-inducible luciferase reporter gene (17 m)5-globin-Luc in the stably transfected reporter constructs GAL-RARα, GAL-RARβ or GAL-RARγ were constructed and used as described previously (Chen, J. Y., et al., EMBO J. 14:1187-1197 (1995)). Cells were treated with RAR-specific ligands, and luciferase-induced bioluminescence was monitored in vivo using a single-photon-counting camera (Hamamatsu) by seeding equal amounts of cells in 24-well tissue culture plates and incubating them with increasing concentrations of retinoids alone, or in the presence of T-RA to determine the antagonistic potential of the ligands.

GAL-RARα = target: T3, GAL-RARα (Homo sapiens, UniProt P10276); assay: as above; type: cell-based; details: FIG. 1, FIG. 2
T3 construct: expressed in transfected cells; host or cells: HeLa
T3 sequence (P10276 183-417 limits assumed): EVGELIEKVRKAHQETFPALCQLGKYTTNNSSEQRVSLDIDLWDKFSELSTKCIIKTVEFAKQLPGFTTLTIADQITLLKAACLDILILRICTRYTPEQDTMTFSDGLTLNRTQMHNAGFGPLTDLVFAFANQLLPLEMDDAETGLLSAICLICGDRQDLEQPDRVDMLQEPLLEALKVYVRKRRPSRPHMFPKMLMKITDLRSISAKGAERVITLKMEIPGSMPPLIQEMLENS
Description: as §1

GAL-RARγ = target: T4, GAL-RARγ (Homo sapiens, UniProt P13631); assay: as above; type: cell-based; details: FIG. 1
T4 construct: expressed in transfected cells; host or cells: HeLa
T4 sequence (P13631 185-419 limits assumed): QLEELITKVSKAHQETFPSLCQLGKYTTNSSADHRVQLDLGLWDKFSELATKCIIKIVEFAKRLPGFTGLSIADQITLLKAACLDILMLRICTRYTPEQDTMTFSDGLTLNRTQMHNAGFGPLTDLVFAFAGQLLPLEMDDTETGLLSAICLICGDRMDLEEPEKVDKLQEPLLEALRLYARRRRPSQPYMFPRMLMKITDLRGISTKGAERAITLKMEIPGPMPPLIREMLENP
Description: as §1

F9 EC cells = details: ligand on its own, Roy et al. 1995; cited from earlier work
P19 cells = details: ligand on its own, Roy et al. 1995; cited from earlier work
[3] = in presence of RXR agonist SR11237
[4] = retinoid alone at 1 (concentration unit not given), 4 days
[5] = retinoid alone at 10 (concentration unit not given), 4 days
[6] = retinoid alone at 100 (concentration unit not given), 4 days
[7] = retinoid at 1 +100 nM SR11237, 4 days
[8] = retinoid alone at 1000 (concentration unit not given), 4 days
[9] = retinoid at 10 +100 nM SR11237, 4 days
[10] = retinoid at 100 +100 nM SR11237, 4 days

Row | Compound | Expression of RARβ2 (and RARγ) by RT-PCR (RARβ2 and RARγ mRNA) | Induction of NB4 cell differentiation (NB4 cells [1]; [3]) | Percentage of NB4 cells differentiated (NB4 cells [1]; [4]) | Percentage of NB4 cells differentiated (NB4 cells [1]; [5]) | Percentage of NB4 cells differentiated (NB4 cells [1]; [6]) | Percentage of NB4 cells differentiated (NB4 cells [1]; [7]) | Induction of NB4 cell differentiation (NB4 cells [1]; retinoid on its own) | Percentage of NB4 cells differentiated (NB4 cells [1]; [8]) | Percentage of NB4 cells differentiated (NB4 cells [1]; [9]) | Percentage of NB4 cells differentiated (NB4 cells [1]; [10]) | Induction of NB4 cell apoptosis (NB4 cells [2]) | further results
1 | CC1(C)CCC(C)(C)c2cc(NC(=O)c3ccc(C(=O)O)cc3)ccc21 [Am80] | induced expression of RARβ2 (and RARγ) was confirmed | significantly more efficient at inducing differentiation at low concentrations | 80% | 81% | 80% | 80% | efficiently induced differentiation |  |  |  |  | Percentage of NB4 cells differentiated (NB4 cells [1]; retinoid alone at 0.1 (concentration unit not given), 4 days): <1%; Percentage of NB4 cells differentiated (NB4 cells [1]; retinoid alone at 0.3 (concentration unit not given), 4 days): <1%; Percentage of NB4 cells differentiated (NB4 cells [1]; retinoid alone at 0.5 (concentration unit not given), 4 days): <1%; Percentage of NB4 cells differentiated (NB4 cells [1]; retinoid at 0.1 +100 nM SR11237, 4 days): <1%; Percentage of NB4 cells differentiated (NB4 cells [1]; retinoid at 0.3 +100 nM SR11237, 4 days): 20%; Percentage of NB4 cells differentiated (NB4 cells [1]; retinoid at 0.5 +100 nM SR11237, 4 days): 40%
2 | CC1=C(/C=C/C(C)=C\C=C\C(C)=C\C(=O)O)C(C)(C)CCC1 [Compound 9C-RA, 9-cis (9C-RA) retinoic acid] |  |  | <1% | 4% | 65% |  |  | 70% |  |  |  | 
3 | CC1(C)CC=C(c2ccccc2)c2cc(/C=C/c3ccc(C(=O)O)cc3)ccc21 [Compound A] | no induction | induced differentiation with higher efficiency than T-RA or 9C-RA |  |  |  | <1% | ineffective on their own | <1% | 65% | 78% | inefficient alone | RARβ and RARγ mRNA production (RARβ2 and RARγ mRNA; with SR11237): efficient accumulation of RARβ and RARγ mRNA; Repression of AP1 activity (AP1 activity): efficiently repressing AP1 activity via all three RARs; Antiproliferative and apoptotic effect on NB4 cells (NB4 cells [2]; in combination with SR11237): strong antiproliferative and apoptotic effect; Association of PML-RARα with nuclear bodies (PML-RARα): indistinguishable from that seen in presence of RARα agonists
4 | CC1(C)CC=C(c2cnc3ccccc3c2)c2cc(C(=O)Nc3ccc(C(=O)O)cc3)ccc21 [Compound B] |  | induced differentiation |  |  |  | <1% | ineffective on their own | <1% | 3% | 5% |  | Block of differentiation induced by 1 nM Am80 (NB4 cells [1]; excess of the compound): completely blocked; Percentage of NB4 cells differentiated (NB4 cells [1]; retinoid at 1000 +100 nM SR11237, 4 days): 10%; Binding to RARβ (GAL-RARβ): does not bind; Binding to RARα (GAL-RARα): lower binding affinity for RARα; Binding to RARγ (GAL-RARγ): does not bind
5 | CC1(C)CCC(C)(C)c2cc(C3(c4ccc(C(=O)O)cc4)OCCO3)ccc21 [SR11237] |  |  |  |  |  |  | ineffective on their own; also recorded: did not induce differentiation | <2% |  |  | inefficient alone | Induction of differentiation and expression of RA target genes (F9 EC cells): unable to induce; Induction of differentiation and expression of RA target genes (P19 cells): unable to induce
6 | CC1=C(/C=C/C(C)=C/C=C/C(C)=C/C(=O)O)C(C)(C)CCC1 [T-RA, all-trans retinoic acid] |  |  | <1% | <1% | 81% |  |  | 80% |  |  | extensive apoptosis | 
